Experimental data published in the NIST ThermoML archive (doi:10.1016/j.jct.2005.04.019).
± gives the expanded uncertainty stated by the source.

Tests used:
[1] = 298.15 K, 101.33 kPa, Liquid; for viscosity: Capillary tube (Ostwald / Ubbelohde) method; for mass density: Vibrating tube method; for speed of sound: Quartz crystal interferometer (Mittal Enterprises, India)
[2] = xn = mol fraction of the nth substance listed; conditions: 298.15 K, 101 kPa, Liquid; for speed of sound: Quartz crystal interferometer (Mittal Enterprises, India)

CCCCCC(C)O (stereo unspecified) [2-heptanol]
[1]
Conditions | mass density [kg/m3] | viscosity [mPa·s]
– | 813.33 ± 0.42 | 5.346 ± 0.039

CCCCCC(C)O (stereo unspecified) [2-heptanol] + CC1CCCCC1
[2]
Conditions | mass density [kg/m3] | speed of sound [m/s] | viscosity [mPa·s]
x2 = 0.0998 | – | 1278 ± 4 | –
x2 = 0.103 | 808.34 ± 0.46 | – | 3.935 ± 0.048
x2 = 0.1479 | – | 1272 ± 4 | –
x2 = 0.1524 | 805.84 ± 0.46 | – | 3.415 ± 0.042
x2 = 0.206 | – | 1263 ± 4 | –
x2 = 0.2071 | 803.04 ± 0.46 | – | 2.945 ± 0.036
x2 = 0.2564 | 800.53 ± 0.46 | – | 2.587 ± 0.032
x2 = 0.3047 | 798.08 ± 0.46 | – | 2.287 ± 0.029
x2 = 0.3053 | – | 1250 ± 4 | –
x2 = 0.3558 | 795.52 ± 0.46 | – | 2.013 ± 0.025
x2 = 0.3966 | – | 1239 ± 4 | –
x2 = 0.4019 | 793.23 ± 0.46 | – | 1.817 ± 0.023
x2 = 0.4469 | 791.02 ± 0.46 | – | 1.649 ± 0.021
x2 = 0.4951 | 788.67 ± 0.46 | – | 1.49 ± 0.019
x2 = 0.5005 | – | 1229 ± 4 | –
x2 = 0.5969 | 783.72 ± 0.46 | – | 1.225 ± 0.016
x2 = 0.5973 | – | 1223 ± 4 | –
x2 = 0.7017 | – | 1223 ± 4 | –
x2 = 0.703 | 778.57 ± 0.46 | – | 1.017 ± 0.014
x2 = 0.7974 | – | 1222 ± 4 | –
x2 = 0.7979 | 773.96 ± 0.46 | – | 0.879 ± 0.012
x2 = 0.8883 | 769.71 ± 0.46 | – | 0.773 ± 0.011
x2 = 0.9017 | – | 1219 ± 4 | –
x2 = 0.9514 | – | 1215 ± 4 | –

CCCCC(C)O (stereo unspecified) [2-hexanol]
[1]
Conditions | mass density [kg/m3] | viscosity [mPa·s]
– | 810.25 ± 0.83 | 4.204 ± 0.048

CCCCC(C)O (stereo unspecified) [2-hexanol] + CC1CCCCC1
[2]
Conditions | mass density [kg/m3] | speed of sound [m/s] | viscosity [mPa·s]
x2 = 0.1002 | – | 1252 ± 4 | –
x2 = 0.1017 | 804.9 ± 0.81 | – | 3.089 ± 0.045
x2 = 0.1514 | 802.31 ± 0.79 | – | 2.701 ± 0.039
x2 = 0.2026 | 799.67 ± 0.76 | – | 2.344 ± 0.034
x2 = 0.2041 | – | 1239 ± 4 | –
x2 = 0.2473 | 797.41 ± 0.75 | – | 2.082 ± 0.03
x2 = 0.2837 | – | 1231 ± 4 | –
x2 = 0.2995 | 794.85 ± 0.72 | – | 1.836 ± 0.026
x2 = 0.3508 | 792.24 ± 0.7 | – | 1.632 ± 0.023
x2 = 0.3521 | – | 1225 ± 4 | –
x2 = 0.3989 | – | 1222 ± 4 | –
x2 = 0.4019 | 789.75 ± 0.68 | – | 1.468 ± 0.021
x2 = 0.452 | 787.34 ± 0.66 | – | 1.345 ± 0.019
x2 = 0.4948 | – | 1216 ± 4 | –
x2 = 0.4972 | 785.2 ± 0.64 | – | 1.227 ± 0.017
x2 = 0.5955 | 780.68 ± 0.6 | – | 1.052 ± 0.015
x2 = 0.5978 | – | 1212 ± 4 | –
x2 = 0.6904 | – | 1209 ± 4 | –
x2 = 0.6956 | 776.28 ± 0.57 | – | 0.917 ± 0.013
x2 = 0.808 | – | 1208 ± 4 | –
x2 = 0.8089 | 771.63 ± 0.52 | – | 0.798 ± 0.011
x2 = 0.8967 | – | 1214 ± 4 | –
x2 = 0.8987 | 768.24 ± 0.49 | – | 0.729 ± 0.01
x2 = 0.9509 | – | 1215 ± 4 | –

CCCCCCC(C)O (stereo unspecified) [2-octanol]
[1]
Conditions | mass density [kg/m3] | viscosity [mPa·s]
– | 816.13 ± 1.3 | 6.568 ± 0.1

CCCCCCC(C)O (stereo unspecified) [2-octanol] + CC1CCCCC1
[2]
Conditions | mass density [kg/m3] | speed of sound [m/s] | viscosity [mPa·s]
x2 = 0.1001 | – | 1292 ± 4 | –
x2 = 0.1006 | 811.52 ± 1.2 | – | 4.941 ± 0.088
x2 = 0.1185 | 810.68 ± 1.2 | – | 4.692 ± 0.083
x2 = 0.1672 | 808.39 ± 1.1 | – | 4.097 ± 0.071
x2 = 0.2032 | – | 1282 ± 4 | –
x2 = 0.2104 | 806.32 ± 1.1 | – | 3.651 ± 0.062
x2 = 0.2489 | 804.45 ± 1.1 | – | 3.308 ± 0.055
x2 = 0.2536 | 804.22 ± 1.1 | – | 3.263 ± 0.055
x2 = 0.3003 | – | 1269 ± 4 | –
x2 = 0.3171 | 801.09 ± 0.99 | – | 2.769 ± 0.045
x2 = 0.347 | 799.59 ± 0.97 | – | 2.58 ± 0.042
x2 = 0.3979 | 797.02 ± 0.93 | – | 2.268 ± 0.036
x2 = 0.4001 | – | 1258 ± 4 | –
x2 = 0.4503 | 794.35 ± 0.88 | – | 2.022 ± 0.032
x2 = 0.5043 | – | 1247 ± 4 | –
x2 = 0.5168 | 790.9 ± 0.83 | – | 1.72 ± 0.026
x2 = 0.5766 | 787.77 ± 0.78 | – | 1.5 ± 0.023
x2 = 0.5969 | 786.69 ± 0.76 | – | 1.443 ± 0.022
x2 = 0.5973 | – | 1239 ± 4 | –
x2 = 0.684 | 782.06 ± 0.69 | – | 1.199 ± 0.017
x2 = 0.6889 | – | 1231 ± 4 | –
x2 = 0.8058 | 775.5 ± 0.6 | – | 0.943 ± 0.013
x2 = 0.8109 | – | 1222 ± 4 | –
x2 = 0.9002 | 770.39 ± 0.53 | – | 0.793 ± 0.011
x2 = 0.9008 | – | 1219 ± 4 | –
x2 = 0.9466 | – | 1216 ± 4 | –

CCC(C)O (stereo unspecified) [butan-2-ol]
[1]
Conditions | mass density [kg/m3] | speed of sound [m/s] | viscosity [mPa·s]
– | 802.54 ± 0.42 | 1213 ± 2 | 2.907 ± 0.022

CCO [ethanol]
[1]
Conditions | mass density [kg/m3] | speed of sound [m/s] | viscosity [mPa·s]
– | 785.32 ± 0.41 | 1145 ± 2 | 1.093 ± 0.009

CC1CCCCC1 [methylcyclohexane]
[1]
Conditions | mass density [kg/m3] | speed of sound [m/s] | viscosity [mPa·s]
– | 764.99 ± 0.41 | 1209 ± 2 | 0.683 ± 0.007
